Test results from the supplement of paper PMC9386025.

Key:
Assay in all cases: drug sensitivity score (DSS) (DSS (dimensionless)); higher = more sensitive (stronger drug response)
[1] = system: FIMM-PDC1 (patient-derived ovarian cancer cells); settings: genetic perturbation: none (patient-derived cell culture)
Summary of the method: (§1)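 Cells, either patient-derived cultures or ovarian cancer cell lines given 100 ng/ml doxycycline for no less than three days to induce shRNA, went into 384-well plates at 1 000 – 1 500 per well over drugs pre-plated in five concentrations across a 10,000-fold range. The plates were held for three days at 37 °C with 5.0 % CO2. Cell viability was then taken from CellTiter-Glo luminescence on a PHERAstar FS. For each drug, a drug sensitivity score from its dose-response curve was obtained by a method described earlier.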

[2] = system: FIMM-PDC3 (patient-derived ovarian cancer cells); settings: genetic perturbation: none (patient-derived cell culture)
Summary of the method: as §1

[3] = system: FIMM-PDC4 (patient-derived ovarian cancer cells); settings: genetic perturbation: none (patient-derived cell culture)
Summary of the method: as §1

[4] = system: FIMM-PDC5 (patient-derived ovarian cancer cells); settings: genetic perturbation: none (patient-derived cell culture)
Summary of the method: as §1

[5] = system: FIMM-PDC6 (patient-derived ovarian cancer cells); settings: genetic perturbation: none (patient-derived cell culture)
Summary of the method: as §1

[6] = system: FIMM-PDC7 (patient-derived ovarian cancer cells); settings: genetic perturbation: none (patient-derived cell culture)
Summary of the method: as §1

[7] = system: JHOS2
Summary of the method: as §1

[8] = system: Kuramochi
Summary of the method: as §1

[9] = system: OVSAHO
Summary of the method: as §1

[10] = genetic perturbation: DOX-induced PTK7 shRNA knockdown
[11] = genetic perturbation: DOX-induced control shRNA

Structure (SMILES)	drug sensitivity score [1]	drug sensitivity score [2]	drug sensitivity score [3]	drug sensitivity score [4]	drug sensitivity score [5]	drug sensitivity score [6]	drug sensitivity score [7, 10]	drug sensitivity score [7, 11]	drug sensitivity score [8, 10]	drug sensitivity score [8, 11]	drug sensitivity score [9, 10]	drug sensitivity score [9, 11]
Cc1nn(C)c(COc2ccc(N3CCN(S(=O)(=O)N(C)C)CC3)cc2)c1-c1cccc2c(CCCOc3cccc4ccccc34)c(C(=O)O)n(CCN3CCOCC3)c12	5.7	8.8	7.2	4.9	4.6	6.5	7.3	3.4	6.25	5.8	10.1	4.9
Cn1cc(C2=Nc3cc(NC(=O)C(N)C4CCCCC4)cc4c3C2=CNNC4=O)cn1 (centres undefined)	12.8	16.4	6.2	10.7	6.4	6.8	4.7	4.9	7.35	3.5	9.2	5.1
O=C(NOC[C@H](O)CO)c1ccc(F)c(F)c1Nc1ccc(I)cc1F	< 0	3	9.4	7.8	3.9	3.1	0.6	6.2	5.9	4	4.6	4.2
O=C(Nc1ccc2[nH]nc(-c3ccncc3)c2c1)[C@@H]1CCN(CC(=O)N2CCN(c3ccc(-c4ncccn4)cc3)CC2)C1	0.35	7.4	18.4	22	16.7	10.2	4.1	12.8	12.6	8	13.4	8.5
COc1ccc(C[C@H](NC(=O)[C@H](C)NC(=O)CN2CCOCC2)C(=O)N[C@@H](Cc2ccccc2)C(=O)C2(C)CO2)cc1 (stereo in doubt) [ONX-0914]	19.9	22.7	17.6	17.4	23.8	20.3	18.3	15.5	14.6	16.4	17.6	12.3
CC/C(=C(\c1ccc(O)cc1)c1ccc(OCCN(C)C)cc1)c1ccccc1 [4-hydroxytamoxifen]	3.6	6	6	6	3	4.6	8.4	2.3	5.1	2.4	4.9	3.2
Nc1ncnc2c1nc(N)n2[C@@H]1O[C@H](CO)[C@@H](O)[C@H]1O [8-amino-adenosine]	17.4	19.1	22.7	27.9	24.8	17.8	23.4	19.8	23.3	20.1	26.2	21.1
Nc1ncnc2c1nc(Cl)n2[C@@H]1O[C@H](CO)[C@@H](O)[C@H]1O [8-chloro-adenosine]	7.45	6	5.9	20.2	10.4	13.8	12.9	9.4	5.75	12.1	18.4	6.9
COc1ccc(S(=O)(=O)Nc2cccnc2Nc2ccc(O)cc2)cc1 [ABT-751]	8.8	9.7	9.6	11.8	5.1	6.8	10.2	6.3	7.95	3.6	7	5.4
CC(C)[C@H](C(=O)Nc1ccc(C(=O)NO)cc1)c1ccccc1 [AR-42]	9.25	10	5.8	10.9	10.5	9.8	9.1	8.5	12.8	6.6	12.4	9
Cc1sc2c(c1C)C(c1ccc(Cl)cc1)=N[C@@H](CC(=O)Nc1ccc(OCCOCCOCCOCCNc3cccc4c3C(=O)N(C3CCC(=O)NC3=O)C4=O)cc1)c1nnc(C)n1-2 (some centres undefined) [ARV-825]	0.6	3.2	8.2	8.9	6.7	8.7	10.2	8.1	8.3	10.5	9.7	9.1
COc1cc(N2CCC(N3CCN(C)CC3)CC2)ccc1Nc1ncnc(Nc2ccccc2S(=O)(=O)C(C)C)n1 [ASP3026]	3.85	5.5	8.1	7.7	5.3	3.4	5.7	5.1	4.5	3.2	5.3	4.5
O=C(NC1CCNCC1)c1n[nH]cc1NC(=O)c1c(Cl)cccc1Cl [AT7519]	14.1	13.6	16.3	20.5	20.5	18.2	14	14	15	7.7	17.2	14.5
O=C(Nc1c[nH]nc1-c1nc2ccc(CN3CCOCC3)cc2[nH]1)NC1CC1 [AT9283]	2.9	4.4	8.2	6.1	3.1	< 0	7.3	4.8	5.7	3.2	6.9	3.1
CCN(CC)CCCC(C)Nc1ccnc2cc(Cl)ccc12 (centres undefined) [Chloroquine]	7.6	8.8	9.1	9	5.8	7.7	8.4	7.8			8.6	5.8
Nc1ccn([C@@H]2O[C@H](CO)[C@@H](O)[C@@H]2O)c(=O)n1 [Cytarabine]	< 0	2.1	3.6	10.5	6	5.7	13.4	7.2			4.1	< 0
Cc1ccc(C(=O)Nc2ccc(CN3CCN(C)CC3)c(C(F)(F)F)c2)cc1C#Cc1cnc2cccnn12 [Ponatinib]							4.7	6.9	7.8	8	10.2	8.3
CC[C@]1(O)C[C@H]2CN(CCc3c([nH]c4ccccc34)[C@@](C(=O)OC)(c3cc4c(cc3OC)N(C=O)[C@H]3[C@@](O)(C(=O)OC)[C@H](OC(C)=O)[C@]5(CC)C=CCN6CC[C@]43[C@@H]65)C2)C1 [Vincristine]	14.9	13.8	8.9	6.4	0.5	5			4.75	2.7	3.4	9.1
